Reference: PMC7557804, “The Anti-Microbial Peptide (Lin-SB056-1)2-K Reduces Pro-Inflammatory Cytokine Release through Interaction with Pseudomonas aeruginosa Lipopolysaccharide” (Antibiotics, 2020)

Columns and labels:
P. aeruginosa [1] = details: in vivo-like models of lung infection; cited from earlier work
Text: The global issue of anti-microbial resistance coupled with the lack of new treatments for bacterial infections has stimulated interest in the use of AMPs for therapeutic purposes. Due to their unique mechanism(s) of action and wide spectrum of biological activities, AMPs are emerging as a promising alternative to conventional anti-microbial agents for the management of antibiotic-resistant and biofilm-associated infections. Although mainly intended for topical use due to potential toxicity and reduced stability under physiological conditions, many different peptides with anti-micro ...

A549 cells = experiment: LPS-induced cytokine production by A549 cells (bead-based multiplex immunoassay); type: cell-based, Human; details: 4 h, 37 °C
Procedure: Human non-small-cell lung adenocarcinoma A549 cells (ATCC CCL-185; LGC Standards, Milan, Italy) and human monocytic THP-1 cells (ATCC TIB-202; LGC Standards) were cultured in tissue culture flasks in Dulbecco’s modified essential medium (DMEM) (Euroclone, Milan, Italy) and RPMI 1640 medium (Euroclone), respectively. Both media were supplemented with 2 mM L-glutamine (Euroclone) and 10% heat-inactivated fetal bovine serum (FBS; Euroclone). Confluent monolayers were detached from the culture flask with 0.25% trypsin/1 mM EDTA solution (Euroclone), suspended in complete culture medium and seeded into flat-bottom 96-well plates at a final density of 1 × 10^4 cells/well (A549) and 2 × 10^4 cells/well (THP-1). A549 cells were cultured for 24 h at 37 °C, 5% CO2 in order to allow adhesion and formation of semi-confluent monolayers. THP-1 cells were cultured for 3 days (37 °C, 5% CO2) in the presence of 100 nM TPA (Sigma-Aldrich, St. Louis, MO, USA) to induce their differentiation into macrophage-like cells.
The anti-inflammatory potential of lin-SB056-1 and (lin-SB056-1)2-K was assessed by evaluating their ability to reduce LPS-induced production of pro-inflammatory cytokines by A549 cells and THP-1 macrophages. In order to ensure cytokine production, cell monolayers were stimulated with LPS from P. aeruginosa serotype 10 (purified by phenol extraction; Sigma-Aldrich, Milano, Italy) at a final concentration of 10 ng/mL (THP-1) and 800 ng/mL (A549). LPS concentrations used in the experiments were chosen based on preliminary assays aimed at identifying the minimum dose of the molecule able to stimulate cytokine production after 4 h of exposure. In order to assess the inhibitory activity of peptides on cytokine production, cell monolayers were incubated in complete culture medium in the presence of LPS and different concentrations of lin-SB056-1 and (lin-SB056-1)2-K (4.8 to 19.25 μM) for 4 h (37 °C, 5% CO2). Cells incubated in the presence of LPS alone were used as positive (cytokine production) control. Following incubation, cell culture supernatants were collected, filter sterilized (0.22 µm) and employed for the quantification of cytokines and the assessment of cell viability.
Different pro-inflammatory cytokines (i.e., IL-1β, IL-6, IL-8 and TNF-α) were quantified in cell culture supernatants through a bead-based multiplex immunoassay (LEGENDplex multi-analyte flow assay kit; BioLegend, San Diego, CA, USA) following manufacturer’s instructions. Briefly, 25 μL of cytokine standard or cell supernatant were incubated with 25 μL of anti-cytokine conjugated beads into V-bottom 96-well plates for 2 h. Following incubation, the plates were washed and subsequently incubated with the detection antibody (25 μL/well) for 1 h. A volume of 25 μL of streptavidin-phycoerythrin was added to each well, and the plates were incubated for another 30 min in the dark. Following consecutive washing steps, the beads were resuspended in the LEGENDplex wash buffer and the samples were analyzed by flow cytometry (BD Accuri C6 flow cytometer; BD Biosciences, Mountain View, CA, United States). Data were acquired with the BD Accuri C6 software (BD Biosciences) (300 events per analyte) and analyzed with the LEGENDplex software (BioLegend). Minimum detectable concentration (MDC+2STDEV) for the tested cytokines were as follows: IL-1β, 0.65 + 0.47 pg/mL; IL-6, 0.97 + 1.46 pg/mL; IL-8, 1.90 + 0.65 pg/mL; TNF-α, 0.88 + 0.27 pg/mL.

[2] = BODIPY TR cadaverine (BC) fluorescent displacement assay, LPS binding; parameters: species or system P. aeruginosa; details: 50 mM Tris-HCl, pH 7.4, 25 °C
Procedure: Measurement of the ability of lin-SB056-1 and its dendrimeric derivative to bind P. aeruginosa serotype 10 LPS (Sigma-Aldrich) in vitro was performed by a fluorescent displacement assay using the BODIPY TR cadaverine (BC) probe (5-(((4-(4,4-difluoro-5-(2-thienyl)-4-bora-3a,4a-diaza-s-indacene-3-yl)phenoxy)acetyl)amino)pentylamine, hydrochloride); Thermo Fisher Scientific), as described elsewhere. BC binds to LPS by recognizing the lipid A portion and the probe fluorescence is quenched. When a peptide able to interact with LPS is added, BC is displaced from the complex and its fluorescence increases. LPS binding assays were carried out in 50 mM Tris-HCl buffer, pH 7.4. Aliquots of the peptides at a final concentration of 0.1 μM were successively added to a cuvette containing the LPS/BC complex (10 µg/mL P. aeruginosa LPS and 10 µM BC). Fluorescence measurements were performed with a Perkin-Elmer LS 55B spectrofluorometer (Perkin-Elmer, Waltham, MA, USA) using a thermostated (25 °C) cuvette apparatus (excitation: 580 nm; emission: 620 nm).

P. aeruginosa [3] = details: 3-D lung epithelial cell model, cited from earlier work
Text: (§1) In our previous work, we explored different strategies to enhance the anti-bacterial and anti-biofilm activity of the semi-synthetic peptide lin-SB056-1 [12] in physiologically relevant, host-mimicking conditions that are known to interfere with the stability and efficacy of AMPs.

[4] = tested on: reference strain and CF lung isolates of P. aeruginosa; details: cell culture medium; cited from earlier work
Text: as §1

[5] = 9.6 μM peptide, P. aeruginosa serotype 10 LPS 800 ng/mL, 5% CO2, complete culture medium, mean of at least three independent experiments, vs peptide-untreated control

Q: For “[KWKIRVRLSA]2-K [(lin-SB056-1)2-K, dendrimeric derivative of lin-SB056-1]”, which “anti-bacterial and anti-biofilm activity in in vivo-like models” value (P. aeruginosa [1]) is on record?
A: remarkable anti-bacterial and anti-biofilm activity

Q: And the “reduction of IL-6 levels” value (A549 cells; [5])?
A: ≤ 80%

Q: What about the “reduction of IL-8 levels” value (A549 cells; [5]) of the same substance?
A: ≤ 80%

Q: And the “effect on IL-6 release” value (A549 cells; LPS 800 ng/mL, peptide 4.8 to 19.25 μM)?
A: significant reduction

Q: And the “effect on IL-8 release” value (A549 cells; LPS 800 ng/mL, peptide 4.8 to 19.25 μM, lin-SB056-1 decrease at 19.25 μM (highest tested))?
A: significant reduction

Q: And the “LPS-binding affinity compared to monomeric form” value ([2]; BC displacement)?
A: significantly greater affinity

Q: And the “ED50 (Effective Displacement; peptide concentration displacing half of the BC)” value ([2]; P. aeruginosa serotype 10 LPS 10 µg/mL, BC 10 µM, excitation 580 nm, emission 620 nm, mean of three independent experiments, SD not exceeding 5%)?
A: approximately 0.4 µM

Q: What about the “reduction in the number of biofilm-forming bacteria” value (P. aeruginosa [3]; 19.25 µM) of the same substance?
A: ≤ 99.9%

Q: And the “anti-biofilm activity” value (P. aeruginosa [3]; compared to lin-SB056-1 and lin-SB056-1/EDTA)?
A: stronger anti-biofilm activity compared to both lin-SB056-1 and the lin-SB056-1/EDTA combination

Q: And the “MIC (Minimal Inhibitory Concentration)” value [4]?
A: 2.4 to 9.6 µM

Q: And the “fold lower MIC compared to lin-SB056-1” value [4]?
A: 4 to 16 fold
